Measurements published in the supplement of paper PMC13380429.

Legend:
Settings in all cases: 72 h
Caco-2 [1] = test: cell viability relative to DMSO; higher = less toxic
Calu-3 [2] = test: as above
HepG2 [3] = test: as above
U2OS [4] = test: as above
Vero E6 [5] = test: as above
Caco-2 [6] = test: relative viability EC50 (midpoint between 100% and the lowest measured viability); higher = less toxic
Calu-3 [7] = test: as above
HepG2 [8] = test: as above
U2OS [9] = test: as above
Vero E6 [10] = test: as above
Caco-2 [11] = test: drug sensitivity score (DSS) for viability; higher = more toxic; extreme values may be limits of the assay
Calu-3 [12] = test: as above
HepG2 [13] = test: as above
U2OS [14] = test: as above
Vero E6 [15] = test: as above

Row | Compound | cell viability (Caco-2 [1]; 1 nM) [%] | cell viability (Caco-2 [1]; 10 nM) [%] | cell viability (Caco-2 [1]; 100 nM) [%] | cell viability (Caco-2 [1]; 1000 nM) [%] | cell viability (Caco-2 [1]; 10000 nM) [%] | cell viability (Calu-3 [2]; 1 nM) [%] | cell viability (Calu-3 [2]; 10 nM) [%] | cell viability (Calu-3 [2]; 100 nM) [%] | cell viability (Calu-3 [2]; 1000 nM) [%] | cell viability (Calu-3 [2]; 10000 nM) [%] | cell viability (HepG2 [3]; 1 nM) [%] | cell viability (HepG2 [3]; 10 nM) [%] | cell viability (HepG2 [3]; 100 nM) [%] | cell viability (HepG2 [3]; 1000 nM) [%] | cell viability (HepG2 [3]; 10000 nM) [%] | cell viability (U2OS [4]; 1 nM) [%] | cell viability (U2OS [4]; 10 nM) [%] | cell viability (U2OS [4]; 100 nM) [%] | cell viability (U2OS [4]; 1000 nM) [%] | cell viability (U2OS [4]; 10000 nM) [%] | cell viability (Vero E6 [5]; 1 nM) [%] | cell viability (Vero E6 [5]; 10 nM) [%] | cell viability (Vero E6 [5]; 100 nM) [%] | cell viability (Vero E6 [5]; 1000 nM) [%] | cell viability (Vero E6 [5]; 10000 nM) [%] | relative viability EC50 (Caco-2 [6]) [µM] | relative viability EC50 (Calu-3 [7]) [µM] | relative viability EC50 (HepG2 [8]) [µM] | relative viability EC50 (U2OS [9]) [µM] | relative viability EC50 (Vero E6 [10]) [µM] | drug sensitivity score (Caco-2 [11]) | drug sensitivity score (Calu-3 [12]) | drug sensitivity score (HepG2 [13]) | drug sensitivity score (U2OS [14]) | drug sensitivity score (Vero E6 [15])
1 | Nc1c(S(=O)(=O)O)cc(Nc2cccc3ccccc23)c2c1C(=O)c1ccccc1C2=O | 91.3 | 97.8 | 101 | 89.7 | 90.1 | 101 | 95.8 | 91.5 | 101 | 93.2 | 103 | 91.1 | 91.1 | 90 | 86.8 | 94.1 | 98.4 | 95.3 | 95.4 | 81.8 | 94.2 | 98.3 | 97.3 | 93.7 | 86.7 | > 10 | > 10 | > 10 | > 10 | > 10 | 0.1 | 0 | 1 | 0.8 | 0
2 | CC(C)N(CCc1c[nH]c2ccccc12)C(C)C [DIPT] | 95 | 103 | 107 | 101 | 102 | 85.7 | 95.4 | 97.5 | 96 | 103 | 93.2 | 86.3 | 99.5 | 86 | 95.7 | 101 | 99.7 | 98.2 | 102 | 96.6 | 103 | 98.9 | 101 | 95.1 | 97.4 | > 10 | > 10 | > 10 | > 10 | > 10 | 0 | 0 | 0 | 0 | 0
3 | Nc1ncc2c(n1)CC(c1ccco1)CC2=O (stereo not given) [NKY-80] | 97 | 98.3 | 102 | 86.4 | 97.6 | 106 | 96.1 | 110 | 101 | 94.8 | 103 | 105 | 109 | 105 | 91 | 96.4 | 97.3 | 99.7 | 97.6 | 100 | 101 | 104 | 100 | 97.7 | 101 | > 10 | > 10 | > 10 | > 10 | > 10 | 0 | 0 | 0 | 0 | 0
4 | CCOc1cncc(/C=C/CCNC)c1 [TC2559] | 97.9 | 99.4 | 100 | 108 | 102 | 87.6 | 98.9 | 98.2 | 95.9 | 109 | 100 | 93.1 | 110 | 96.7 | 117 | 101 | 102 | 97 | 101 | 104 | 94.1 | 94.5 | 89.2 | 90.2 | 110 | > 10 | > 10 | > 10 | > 10 | > 10 | 0 | 0 | 0 | 0 | 0
5 | Cc1cccc(C)c1NC(=O)CC12CCCN1CCC2 [pilsicainide] | 104 | 83.8 | 95 | 94.7 | 91.9 | 106 | 94.6 | 87.8 | 102 | 94.7 | 86.5 | 102 | 90.2 | 99.4 | 91.1 | 96.3 | 92.8 | 99.4 | 94.7 | 102 | 102 | 98.7 | 99.9 | 100 | 100 | > 10 | > 10 | > 10 | > 10 | > 10 | 0 | 0 | 0 | 0 | 0
6 | CCOC(=O)[C@@H](N)Cc1ccc(O)c(O)c1 [etilevodopa] | 94 | 107 | 84.2 | 85.8 | 92.8 | 103 | 95.6 | 92.2 | 88.8 | 94 | 86.2 | 96 | 88.1 | 99.1 | 92.5 | 92.6 | 95.7 | 98.3 | 96.3 | 99.3 | 101 | 89.7 | 89.7 | 98.9 | 111 | > 10 | > 10 | > 10 | > 10 | > 10 | 2.8 | 0.3 | 0 | 0 | 0
7 | O=C(Nc1ccccc1C(=O)Nc1ccc(CCO)cc1)c1ccc([N+](=O)[O-])cc1 [KS-176] | 94 | 94.8 | 87.9 | 97.5 | 90.6 | 100 | 87.9 | 98.1 | 102 | 91.5 | 94 | 95 | 96.3 | 95.2 | 83.2 | 96.7 | 104 | 97.6 | 97.8 | 93.4 | 98.2 | 102 | 99.2 | 92.6 | 93.1 | > 10 | > 10 | > 10 | > 10 | > 10 | 0 | 0 | 0.1 | 0 | 0
8 | CC1(C)OC2(C)C(O)CC1CC2O (stereo not given) [epomediol] | 98.7 | 92.1 | 98.2 | 95 | 101 | 97.1 | 82.6 | 97.5 | 90.9 | 105 | 99.9 | 98.1 | 96.2 | 112 | 101 | 108 | 97.3 | 98.1 | 97.7 | 102 | 98.7 | 97 | 98 | 98.7 | 94 | > 10 | > 10 | > 10 | > 10 | > 10 | 0 | 0 | 0 | 0 | 0
9 | C[C@H]1C[C@H]2[C@@H]3CCC4=CC(=O)C=C[C@]4(C)[C@@]3(Cl)[C@@H](O)C[C@]2(C)[C@@]1(O)C(=O)CO [beclomethasone] | 108 | 88.6 | 95.2 | 98.4 | 112 | 102 | 97.3 | 103 | 95.3 | 91.5 | 92.7 | 110 | 96.7 | 106 | 113 | 97.5 | 92.9 | 101 | 95.8 | 94 | 94.4 | 90.4 | 93.5 | 99.8 | 110 | > 10 | > 10 | > 10 | > 10 | > 10 | 0 | 0 | 0 | 0 | 0
10 | CC(C)C[C@H](NC(=O)[C@H](CCCCN)NC(=O)[C@H](CCCNC(=N)N)NC(=O)[C@H](C)NC(=O)[C@H](CO)NC(=O)[C@H](CCCCN)NC(=O)[C@H](CCCNC(=N)N)NC(=O)[C@H](C)NC(=O)CNC(=O)[C@@H](NC(=O)[C@H](Cc1ccccc1)NC(=O)CNC(=O)CNC(=O)[C@@H](N)Cc1ccccc1)[C@@H](C)O)C(=O)N[C@@H](C)C(=O)N[C@@H](CC(N)=O)C(=O)N[C@@H](CCC(N)=O)C(=O)O [orphanin-fq] | 90.9 | 93.6 | 104 | 106 | 96.5 | 104 | 107 | 101 | 112 | 96.8 | 94.3 | 97.4 | 94.5 | 98.7 | 106 | 98.1 | 93.3 | 97.7 | 97.5 | 96.1 | 92.2 | 99.7 | 95.3 | 97.1 | 98.6 | > 10 | > 10 | > 10 | > 10 | > 10 | 0 | 0 | 0 | 0 | 0
11 | O=C1c2c(O)cccc2Cc2cccc(O)c21 [anthralin] | 102 | 95.8 | 97.3 | 96.9 | 93.4 | 103 | 98.5 | 89.8 | 95.9 | 108 | 90.2 | 103 | 119 | 105 | 92.3 | 92.3 | 97.6 | 97 | 98.8 | 102 | 102 | 88.7 | 96 | 78.3 | 100 | > 10 | > 10 | > 10 | > 10 | > 10 | 0 | 0 | 0 | 0 | 0
12 | NC(=O)CC[C@H](NC(=O)Cc1ccccc1)C(=O)O [phenylacetylglutamine] | 91.4 | 101 | 82.2 | 96 | 92.9 | 90.6 | 102 | 94.9 | 95.8 | 98.3 | 93.9 | 94.4 | 96.2 | 90.9 | 98.5 | 97 | 101 | 97.8 | 92.2 | 97.5 | 104 | 94.6 | 103 | 100 | 105 | > 10 | > 10 | > 10 | > 10 | > 10 | 0 | 0 | 0 | 0 | 0
13 | CCCN(CCC)C(=O)Cc1c(-c2ccc(Cl)cc2)nc2ccc(Cl)cn12 [alpidem] | 91.5 | 103 | 102 | 104 | 100 | 95.7 | 96.4 | 96.2 | 98.9 | 107 | 92.5 | 94.6 | 96.6 | 102 | 95.1 | 92.6 | 97.4 | 95.9 | 104 | 112 | 102 | 99.6 | 104 | 97.4 | 112 | > 10 | > 10 | > 10 | > 10 | > 10 | 0 | 0 | 0 | 0 | 0
14 | CCCN1CCCC(c2cccc(O)c2)C1 (stereo in doubt) [preclamol] | 107 | 94.9 | 106 | 93.1 | 99.6 | 110 | 110 | 112 | 93.5 | 99.6 | 95.6 | 110 | 107 | 112 | 99.6 | 102 | 103 | 102 | 99.1 | 101 | 90.5 | 99.2 | 95.1 | 98.3 | 91.8 | > 10 | > 10 | > 10 | > 10 | > 10 | 0 | 0 | 0 | 0 | 0
